From BindingDB's records for doi:10.1074/jbc.M110.139634 (French Alternative Energies and Atomic Energy Commission, 2010)

Legend:
Assay in all cases: Enzyme Assay
Settings in all cases: pH 6.8; 25 °C
Interstitial collagenase = biological target: T1, Interstitial collagenase (Homo sapiens, UniProt P03956)
T1 sequence (P03956 whole entry): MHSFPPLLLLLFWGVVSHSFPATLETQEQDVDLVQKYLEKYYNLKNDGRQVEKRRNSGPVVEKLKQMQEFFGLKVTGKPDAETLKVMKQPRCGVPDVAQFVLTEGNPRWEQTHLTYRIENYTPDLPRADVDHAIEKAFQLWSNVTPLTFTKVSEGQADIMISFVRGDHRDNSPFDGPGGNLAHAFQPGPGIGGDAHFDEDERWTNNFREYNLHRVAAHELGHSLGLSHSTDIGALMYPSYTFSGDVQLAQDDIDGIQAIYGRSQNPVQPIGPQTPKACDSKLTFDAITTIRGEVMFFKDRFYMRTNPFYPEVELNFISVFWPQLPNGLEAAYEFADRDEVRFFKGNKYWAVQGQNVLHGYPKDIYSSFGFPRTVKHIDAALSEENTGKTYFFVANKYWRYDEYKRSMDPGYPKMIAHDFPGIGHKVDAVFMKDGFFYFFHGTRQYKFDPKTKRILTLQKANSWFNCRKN
From the text: (§1) Enzyme assay using matrix metalloproteinases.

[1] = biological target: 72 kDa type IV collagenase (Homo sapiens, UniProt P08253)
From the text: as §1

[2] = biological target: Macrophage metalloelastase (Homo sapiens, UniProt P39900)
From the text: as §1

[3] = biological target: T2, Disintegrin and metalloproteinase domain-containing protein 17 [215-477,S266A,N452Q] (Homo sapiens, UniProt P78536, N452Q/S266A)
T2 construct: 215-477
From the text: as §1

Stromelysin-2 = Stromelysin-2 (Homo sapiens, UniProt P09238)
From the text: as §1

[4] = biological target: Angiotensin-converting enzyme (Homo sapiens, UniProt P12821)
From the text: as §1

[5] = biological target: Matrix metalloproteinase-14 (Homo sapiens, UniProt P50281)
From the text: as §1

Matrilysin = biological target: T3, Matrilysin (Homo sapiens, UniProt P09237)
T3 sequence (P09237 whole entry): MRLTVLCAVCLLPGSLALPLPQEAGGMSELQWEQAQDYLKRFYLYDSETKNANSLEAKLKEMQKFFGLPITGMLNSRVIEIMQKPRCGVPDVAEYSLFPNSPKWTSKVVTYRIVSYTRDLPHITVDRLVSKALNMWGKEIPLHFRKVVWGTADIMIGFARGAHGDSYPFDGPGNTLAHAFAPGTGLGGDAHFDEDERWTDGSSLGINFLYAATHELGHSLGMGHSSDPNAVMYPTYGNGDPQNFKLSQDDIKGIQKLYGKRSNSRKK
From the text: as §1

[6] = biological target: Matrix metalloproteinase-9 (Homo sapiens, UniProt P14780)
From the text: as §1

Neutrophil collagenase = Neutrophil collagenase (Homo sapiens, UniProt P22894)
From the text: as §1

Collagenase 3 = Collagenase 3 (Homo sapiens, UniProt P45452)
From the text: as §1

Stromelysin-1 = Stromelysin-1 (Homo sapiens, UniProt P08254)
From the text: as §1

T2 sequence (P78536 215-477 S266A/N452Q): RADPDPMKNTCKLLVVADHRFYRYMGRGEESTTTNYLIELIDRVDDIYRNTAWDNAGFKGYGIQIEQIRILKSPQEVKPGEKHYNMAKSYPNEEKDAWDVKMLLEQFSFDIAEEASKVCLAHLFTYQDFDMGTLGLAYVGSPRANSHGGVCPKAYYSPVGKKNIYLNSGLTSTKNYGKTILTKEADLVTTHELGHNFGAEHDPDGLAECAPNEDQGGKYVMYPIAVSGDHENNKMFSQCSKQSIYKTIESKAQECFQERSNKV
Chain of Stromelysin-2 (P09238 whole entry): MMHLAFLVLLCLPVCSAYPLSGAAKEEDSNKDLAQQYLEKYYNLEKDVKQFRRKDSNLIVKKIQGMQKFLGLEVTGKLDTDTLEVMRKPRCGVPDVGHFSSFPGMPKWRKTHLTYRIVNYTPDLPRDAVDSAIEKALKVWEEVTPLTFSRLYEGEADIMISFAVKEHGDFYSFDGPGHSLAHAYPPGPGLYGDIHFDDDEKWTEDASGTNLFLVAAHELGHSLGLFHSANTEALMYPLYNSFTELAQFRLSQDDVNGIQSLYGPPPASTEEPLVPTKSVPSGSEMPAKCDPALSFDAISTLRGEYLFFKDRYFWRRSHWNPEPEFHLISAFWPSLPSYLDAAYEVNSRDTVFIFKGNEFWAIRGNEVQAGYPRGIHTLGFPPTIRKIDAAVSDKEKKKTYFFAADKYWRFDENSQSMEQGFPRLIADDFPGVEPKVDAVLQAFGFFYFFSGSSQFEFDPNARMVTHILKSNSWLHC
Chain of Angiotensin-converting enzyme (P12821 whole entry): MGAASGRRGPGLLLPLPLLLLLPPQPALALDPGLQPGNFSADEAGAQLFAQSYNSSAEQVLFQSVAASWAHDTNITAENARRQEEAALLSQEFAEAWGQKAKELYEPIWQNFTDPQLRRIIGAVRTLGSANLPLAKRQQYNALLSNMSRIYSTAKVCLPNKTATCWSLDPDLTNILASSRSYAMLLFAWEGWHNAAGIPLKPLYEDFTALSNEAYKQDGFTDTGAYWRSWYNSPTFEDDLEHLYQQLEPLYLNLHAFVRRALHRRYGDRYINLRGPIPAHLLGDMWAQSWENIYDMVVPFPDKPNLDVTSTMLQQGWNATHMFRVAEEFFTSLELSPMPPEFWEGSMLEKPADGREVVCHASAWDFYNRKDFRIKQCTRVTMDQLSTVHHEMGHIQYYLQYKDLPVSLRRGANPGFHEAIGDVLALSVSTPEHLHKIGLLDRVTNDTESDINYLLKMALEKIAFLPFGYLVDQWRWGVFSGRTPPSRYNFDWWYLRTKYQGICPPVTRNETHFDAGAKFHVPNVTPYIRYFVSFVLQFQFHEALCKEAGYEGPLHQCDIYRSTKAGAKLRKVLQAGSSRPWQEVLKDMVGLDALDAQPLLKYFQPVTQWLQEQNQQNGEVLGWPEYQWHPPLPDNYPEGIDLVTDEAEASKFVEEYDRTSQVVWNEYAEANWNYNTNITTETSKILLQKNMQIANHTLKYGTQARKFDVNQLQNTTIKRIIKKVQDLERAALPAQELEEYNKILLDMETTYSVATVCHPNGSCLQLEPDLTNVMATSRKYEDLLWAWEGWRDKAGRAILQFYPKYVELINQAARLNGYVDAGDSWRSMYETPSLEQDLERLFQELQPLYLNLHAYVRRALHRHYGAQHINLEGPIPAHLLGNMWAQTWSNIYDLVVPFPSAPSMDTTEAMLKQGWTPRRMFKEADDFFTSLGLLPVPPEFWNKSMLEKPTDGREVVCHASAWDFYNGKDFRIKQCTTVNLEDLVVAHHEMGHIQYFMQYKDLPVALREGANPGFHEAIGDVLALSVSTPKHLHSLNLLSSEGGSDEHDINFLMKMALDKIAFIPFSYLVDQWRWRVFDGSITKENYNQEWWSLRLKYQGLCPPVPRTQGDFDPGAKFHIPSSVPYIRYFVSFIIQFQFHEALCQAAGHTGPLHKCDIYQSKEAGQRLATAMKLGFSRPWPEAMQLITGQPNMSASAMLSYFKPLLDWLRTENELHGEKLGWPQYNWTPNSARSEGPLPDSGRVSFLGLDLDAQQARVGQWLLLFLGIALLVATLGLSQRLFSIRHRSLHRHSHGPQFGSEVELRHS
Chain of 72 kDa type IV collagenase (P08253 whole entry): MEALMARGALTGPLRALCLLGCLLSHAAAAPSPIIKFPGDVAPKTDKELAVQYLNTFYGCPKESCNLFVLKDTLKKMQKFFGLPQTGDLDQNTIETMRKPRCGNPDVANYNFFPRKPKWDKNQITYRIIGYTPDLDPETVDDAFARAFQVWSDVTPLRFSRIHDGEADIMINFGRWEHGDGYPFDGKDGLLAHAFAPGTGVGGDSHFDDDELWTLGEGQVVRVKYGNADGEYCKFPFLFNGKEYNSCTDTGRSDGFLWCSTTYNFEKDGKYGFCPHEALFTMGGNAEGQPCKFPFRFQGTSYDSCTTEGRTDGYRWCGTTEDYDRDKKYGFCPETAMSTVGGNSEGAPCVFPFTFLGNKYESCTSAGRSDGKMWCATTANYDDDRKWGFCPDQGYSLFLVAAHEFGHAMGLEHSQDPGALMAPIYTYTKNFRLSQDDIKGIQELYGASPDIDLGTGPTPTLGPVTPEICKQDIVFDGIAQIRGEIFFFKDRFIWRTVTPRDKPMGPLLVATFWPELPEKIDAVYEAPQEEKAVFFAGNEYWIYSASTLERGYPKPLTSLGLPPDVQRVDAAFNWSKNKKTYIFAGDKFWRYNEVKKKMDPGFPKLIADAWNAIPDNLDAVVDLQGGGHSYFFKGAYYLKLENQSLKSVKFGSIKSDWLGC
Chain of Stromelysin-1 (P08254 whole entry): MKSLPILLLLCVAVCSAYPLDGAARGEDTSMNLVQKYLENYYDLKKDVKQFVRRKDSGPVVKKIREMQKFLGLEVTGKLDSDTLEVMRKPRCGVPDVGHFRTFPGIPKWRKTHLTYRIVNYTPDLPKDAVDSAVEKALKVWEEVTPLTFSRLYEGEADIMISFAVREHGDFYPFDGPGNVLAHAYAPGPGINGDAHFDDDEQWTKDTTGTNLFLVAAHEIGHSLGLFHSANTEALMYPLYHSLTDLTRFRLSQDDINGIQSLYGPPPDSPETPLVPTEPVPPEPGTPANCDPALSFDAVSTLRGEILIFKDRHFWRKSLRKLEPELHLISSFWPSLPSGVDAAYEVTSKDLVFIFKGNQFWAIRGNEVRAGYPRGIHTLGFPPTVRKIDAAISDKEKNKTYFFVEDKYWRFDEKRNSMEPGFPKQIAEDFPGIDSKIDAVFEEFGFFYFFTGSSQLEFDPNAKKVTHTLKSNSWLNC
Chain of Neutrophil collagenase (P22894 whole entry): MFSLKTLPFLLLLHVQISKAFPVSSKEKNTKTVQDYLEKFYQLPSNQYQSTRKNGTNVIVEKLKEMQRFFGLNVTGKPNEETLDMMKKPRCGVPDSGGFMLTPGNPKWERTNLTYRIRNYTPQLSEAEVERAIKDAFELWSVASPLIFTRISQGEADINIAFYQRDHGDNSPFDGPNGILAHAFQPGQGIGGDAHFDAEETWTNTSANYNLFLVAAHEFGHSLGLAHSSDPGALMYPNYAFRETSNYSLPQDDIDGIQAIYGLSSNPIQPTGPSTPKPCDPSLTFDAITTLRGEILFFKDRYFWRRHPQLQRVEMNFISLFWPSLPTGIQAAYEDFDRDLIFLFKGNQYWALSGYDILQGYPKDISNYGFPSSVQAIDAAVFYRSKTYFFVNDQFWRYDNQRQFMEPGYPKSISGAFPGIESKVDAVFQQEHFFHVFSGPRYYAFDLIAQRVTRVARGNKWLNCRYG
Chain of Matrix metalloproteinase-9 (P14780 whole entry): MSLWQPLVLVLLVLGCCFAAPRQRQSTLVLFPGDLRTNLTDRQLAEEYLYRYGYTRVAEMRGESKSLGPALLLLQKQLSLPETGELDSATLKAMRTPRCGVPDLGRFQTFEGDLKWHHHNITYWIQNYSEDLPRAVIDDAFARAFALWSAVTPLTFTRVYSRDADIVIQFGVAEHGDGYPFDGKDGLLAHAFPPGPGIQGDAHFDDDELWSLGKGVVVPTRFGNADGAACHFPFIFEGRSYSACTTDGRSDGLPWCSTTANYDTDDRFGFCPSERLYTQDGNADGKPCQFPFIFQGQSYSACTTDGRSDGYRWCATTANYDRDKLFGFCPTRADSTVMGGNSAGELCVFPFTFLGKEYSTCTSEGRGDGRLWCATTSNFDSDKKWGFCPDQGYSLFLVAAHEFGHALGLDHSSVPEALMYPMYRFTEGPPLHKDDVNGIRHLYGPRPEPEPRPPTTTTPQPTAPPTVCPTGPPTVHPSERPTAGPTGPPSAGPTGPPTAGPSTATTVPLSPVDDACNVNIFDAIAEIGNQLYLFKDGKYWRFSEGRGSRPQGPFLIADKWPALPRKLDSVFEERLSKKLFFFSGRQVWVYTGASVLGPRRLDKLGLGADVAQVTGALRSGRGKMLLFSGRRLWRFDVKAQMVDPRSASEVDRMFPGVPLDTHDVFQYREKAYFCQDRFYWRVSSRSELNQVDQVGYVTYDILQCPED
Chain of Macrophage metalloelastase (P39900 whole entry): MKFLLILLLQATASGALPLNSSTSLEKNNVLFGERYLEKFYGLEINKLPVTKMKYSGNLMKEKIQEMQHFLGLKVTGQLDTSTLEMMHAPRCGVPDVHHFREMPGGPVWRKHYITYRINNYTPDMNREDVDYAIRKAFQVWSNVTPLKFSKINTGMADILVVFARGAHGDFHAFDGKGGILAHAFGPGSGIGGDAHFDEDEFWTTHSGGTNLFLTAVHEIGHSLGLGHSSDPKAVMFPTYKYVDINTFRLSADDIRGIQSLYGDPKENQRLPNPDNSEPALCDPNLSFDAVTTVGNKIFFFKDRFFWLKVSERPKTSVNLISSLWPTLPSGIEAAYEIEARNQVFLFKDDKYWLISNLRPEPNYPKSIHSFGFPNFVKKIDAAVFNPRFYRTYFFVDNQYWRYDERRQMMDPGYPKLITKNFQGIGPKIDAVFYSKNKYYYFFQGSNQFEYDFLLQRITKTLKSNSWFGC

Which results are given for `NC(=O)[C@@H](CCC(=O)O)NC(=O)[C@H](CCC(=O)O)NC(=O)C(Cc1cc(-c2ccc(-c3cccc(Cl)c3)cc2)no1)CP(=O)(O)c1ccc(Br)cc1` (some centres not stated) [RXP470, Compound 4]?
Ki (Interstitial collagenase): > 10000 nM; Ki [1]: 192 nM; Ki [2]: 0.19 nM; Ki [3]: > 10000 nM; Ki (Stromelysin-2): 8.3 nM; Ki [4]: > 10000 nM; Ki [5]: 140 nM; Ki (Matrilysin): 626 nM; Ki [6]: 850 nM; Ki (Neutrophil collagenase): 271 nM; Ki (Collagenase 3): 49 nM; Ki (Stromelysin-1): 40 nM
